Assay results as given in PMC4984408 (ChemistryOpen, 2016).
Like-named read-outs stand apart in the source and are kept apart here.

Tests used:
[1] = test system: dengue viruses (DENV, serotype D2); type: cell-based, dengue virus
[2] = test system: yellow fever (YFV, 17 D strain of ASIBI); type: cell-based, yellow fever virus

SMILES | D2 inhibition [% Cells alive] ([1]; 5 μM) | D2 inhibition [% Cells alive] ([1]; 10 μM) | D2 inhibition [% Cells alive] ([1]; 20 μM) | YFV inhibition [% Cells alive] ([2]; 5 μM) | YFV inhibition [% Cells alive] ([2]; 10 μM) | CC50 (Vero cells) | YFV inhibition [% Cells alive] ([2]; 20 μM) | anti-YFV activity (in words) [2] | cytotoxicity (in words) (Vero cells) | anti-DENV activity (in words) [1]
COc1ccc(C(OC[C@H]2O[C@@H](n3ccc(=O)[nH]c3=O)[C@H](F)[C@@H]2O)(c2ccccc2)c2ccc(OC)cc2)cc1 [16 H, 5′‐O‐dimethoxytrityl‐2′‐fluoro‐2′‐deoxyuridine] | 0 % Cells alive | 0 % Cells alive | 0 % Cells alive | 0 % Cells alive | 0 % Cells alive | > 20 µM | – | – | – | –
O=c1[nH]c(=O)n([C@H]2C[C@H](O)[C@@H](COC(c3ccccc3)(c3ccccc3)c3ccccc3)O2)cc1I [14 D, 5′‐O‐Trityl‐5‐iodo‐2′‐deoxyuridine] | 0 % Cells alive | 0 % Cells alive | 2.47±0.06 % Cells alive | 0 % Cells alive | 0 % Cells alive | – | 0 % Cells alive | – | – | –
Cc1cn([C@H]2C[C@H](OC(c3ccccc3)(c3ccccc3)c3ccccc3)[C@@H](COC(c3ccccc3)(c3ccccc3)c3ccccc3)O2)c(=O)[nH]c1=O [21 B, 5′,3′‐bis‐O‐trityl‐thymidine] | 0 % Cells alive | 0 % Cells alive | 0 % Cells alive | 0 % Cells alive | 0 % Cells alive | – | 0.95±0.17 % Cells alive | – | – | –
O[C@H]1[C@H](O)[C@@H](COC(c2ccccc2)(c2ccccc2)c2ccccc2)O[C@H]1n1cnc2c(NC(c3ccccc3)(c3ccccc3)c3ccccc3)nc(F)nc21 [20 D‐NHTr, 5′‐O,N‐trityl‐fludarabine] | – | – | – | 0 % Cells alive | 0.28 % Cells alive | > 20 µM | 0.84 % Cells alive | devoid of any significant anti‐YFV inhibitory effect | no cytotoxicity | –
COc1ccc(C(OC[C@H]2O[C@@H](n3ccc(=O)[nH]c3=O)[C@H](O)[C@@H]2O)(c2ccccc2)c2ccc(OC)cc2)cc1 [9 H, 5′‐O‐Dimethoxytrityluridine] | 0 % Cells alive | 0 % Cells alive | 0 % Cells alive | – | – | > 20 µM | – | – | – | –
COc1ccc(C(OC[C@H]2O[C@@H](n3cc(F)c(=O)[nH]c3=O)C[C@@H]2O)(c2ccccc2)c2ccc(OC)cc2)cc1 [15 H, 5′‐O‐dimethoxytrityl‐5‐fluoro‐2′‐deoxyuridine] | 0 % Cells alive | 0 % Cells alive | 0 % Cells alive | 0 % Cells alive | – | > 20 µM | – | – | – | –
O=c1[nH]c(NC(c2ccccc2)(c2ccccc2)c2ccccc2)nc2c1ncn2CCC(COC(c1ccccc1)(c1ccccc1)c1ccccc1)COC(c1ccccc1)(c1ccccc1)c1ccccc1 [22 B‐NHTr, 2‐N,5′,3′‐O‐tri‐trityl penciclovir] | 0 % Cells alive | 0 % Cells alive | 0 % Cells alive | 0 % Cells alive | 0 % Cells alive | > 20 µM | 8.09±0.04 % Cells alive | – | – | –
O=c1ccn([C@@H]2O[C@H](COC(c3ccccc3)(c3ccccc3)c3ccccc3)[C@@H](O)[C@H]2F)c(=O)[nH]1 [16 D, 5′‐O‐trityl‐2′‐fluoro‐2′‐deoxyuridine] | 0 % Cells alive | 0 % Cells alive | – | 0 % Cells alive | 0 % Cells alive | – | 0 % Cells alive | – | – | –
Cc1cn([C@@H]2O[C@H](COC(c3ccccc3)(c3ccccc3)c3ccccc3)[C@@H](O)[C@H]2O)c(=O)[nH]c1=O [19 D, 5′‐O‐trityl‐5‐methyluridine] | 0 % Cells alive | 0 % Cells alive | 0 % Cells alive | 0 % Cells alive | 0 % Cells alive | – | – | – | – | no inhibitory properties
NC(=O)c1ncn([C@@H]2O[C@H](COC(c3ccccc3)(c3ccccc3)c3ccccc3)[C@@H](OC(c3ccccc3)(c3ccccc3)c3ccccc3)[C@H]2O)n1 [5 B, 5′,3′‐bis‐O‐tritylribavirin] | 0 % Cells alive | 0 % Cells alive | – | 0 % Cells alive | 0 % Cells alive | > 20 µM | 0 % Cells alive | – | – | –
COc1ccc(C(OCC2OC(n3ccc(NC(C)=O)nc3=O)CS2)(c2ccccc2)c2ccc(OC)cc2)cc1 (stereo not shown) [12 H, 5′‐O‐Dimetoxytrityl‐N‐acetyl‐lamivudine] | 0 % Cells alive | 0 % Cells alive | 0 % Cells alive | 0 % Cells alive | 0 % Cells alive | > 20 µM | 70.45±18.31 % Cells alive | – | – | –
COc1ccc(C(OC[C@H]2O[C@@H](n3cc(F)c(=O)[nH]c3=O)[C@H](O)[C@@H]2O)(c2ccccc2)c2ccc(OC)cc2)cc1 [6 H, 5′‐O‐dimethoxytrityl‐5‐fluorouridine] | 0 % Cells alive | 0 % Cells alive | 0 % Cells alive | 9.22±0.46 % Cells alive | 30.89±1.85 % Cells alive | > 20 µM | – | – | – | –
O=c1[nH]c(=O)n([C@@H]2O[C@H](COC(c3ccccc3)(c3ccccc3)c3ccccc3)[C@@H](O)[C@H]2O)cc1F [6 D, 5′‐O‐trityl‐5‐fluorouridine] | 0 % Cells alive | 0 % Cells alive | 0 % Cells alive | 0 % Cells alive | 0 % Cells alive | – | – | – | – | no inhibitory properties
Cc1cn([C@H]2C[C@H](O)[C@@H](COC(c3ccccc3)(c3ccccc3)c3ccccc3)O2)c(=O)[nH]c1=O [Compound 1, 5′‐O‐trityl‐thymidine] | 0 % Cells alive | 0 % Cells alive | 0 % Cells alive | 0 % Cells alive | 1.25±0.03 % Cells alive | – | – | – | – | no inhibitory properties
